Experimental data published in patent publication US9708368B2, “Linear peptide antibiotics” (priority 2012, dated 2017).
Values after ≈ are worked out from the molar mass of the structure shown. Square brackets hold non-standard residues; d marks the D form. Peptide text beside a SMILES is read from it. * marks the point of attachment. ξ: configuration not given here. boroAla((+)-pinanediol) = C[C@H](N*)B1O[C@@H]2C[C@@H]3C[C@@H](C3(C)C)[C@]2(C)O1; Biphenylcarbonyl(4'-Bu) = CCCCc1ccc(-c2ccc(C(=O)*)cc2)cc1; X1 = C[C@H](N*)B1OC2C[C@@H]3C[C@@H](C3(C)C)[C@]2(C)O1; X16 = CC(C)(C)c1ccc(-c2ccc(C(=O)*)cc2)cc1; Pro(4S-NH2) = N[C@@H]1CN[C@H](C(=O)O)C1; NMeY = CN[C@@H](Cc1ccc(O)cc1)C(=O)O; NMeT = CN[C@H](C(=O)O)[C@@H](C)O; Hpg = N[C@H](C(=O)O)c1ccc(O)cc1; NMeE = CN[C@@H](CCC(=O)O)C(=O)O; NMeK = CN[C@@H](CCCCN)C(=O)O; Tle = CC(C)(C)[C@H](N)C(=O)O; NMeV = CN[C@H](C(=O)O)C(C)C; boroAla = C[C@H](N*)B(O)O; Dab = NCC[C@H](N)C(=O)O; Ac3c = NC1(C(=O)O)CC1; ξOrn = NCCCC(N)C(=O)O; βAla = NCCC(=O)O

Experiments:
[1] = tested on: methicillin resistant Staphylococcus aureus (MRSA) strain USA300 (NRS384); details: Method B, 35° C., 22 hours
[2] = tested on: Escherichia coli strain MC4100 IMP-4213, which harbors an LptD mutation; details: Method B; E. coli MC4100 IMP-4213 (LptD mutation); 35° C., 22 hours
Summary of the method: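 Two-fold serial dilutions of compound inoculated at final OD600 0.0005, incubated static at 35 °C for 22 h, and growth read visually.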

S. aureus SPase = S. aureus SPase (Staphylococcus aureus, UniProt P0A070); assay: biochemical
E. coli SPase = E. coli SPase (Escherichia coli, UniProt P00803); assay: Biochemical SPase activity assay (fluorogenic peptide substrate), E. coli enzyme

Row | SMILES | MIC (μg/mL) S. aureus [1] [µg/mL] | MIC (μg/mL) E. coli [2] [µg/mL] | IC50 (S. aureus SPase) [nM] | IC50 (E. coli SPase) [nM]
1 | CCCCc1ccc(-c2ccc(C(=O)NCCC(=O)N[C@@H](CCCCN)C(=O)N3CCC[C@H]3C(=O)N[C@@H](C)C(=O)N[C@@H](CC(N)=O)C(=O)N[C@@H](C)B3OC4C[C@@H]5C[C@@H](C5(C)C)[C@]4(C)O3)cc2)cc1 (stereo partly drawn) [Compound 208] ({Biphenylcarbonyl(4'-Bu)-βAla}-KPAN-X1) | 0.31 (≈ 0.329 µM) | 4 (≈ 4.25 µM) | 5.7 | 20
2 | CCCCc1ccc(-c2ccc(C(=O)NCCC(=O)N[C@@H](CCCCN)C(=O)N[C@H](C(=O)N[C@@H](C)C(=O)N[C@@H](CC(N)=O)C(=O)N[C@@H](C)B3OC4C[C@@H]5C[C@@H](C5(C)C)[C@]4(C)O3)c3ccc(O)cc3)cc2)cc1 (stereo partly drawn) [Compound 209] ({Biphenylcarbonyl(4'-Bu)-βAla}-K[Hpg]AN-X1) | 1 (≈ 1.01 µM) | 2.5 (≈ 2.52 µM) | 15 | 12
3 | CCCCc1ccc(-c2ccc(C(=O)NCCC(=O)N[C@@H](CCCCN)C(=O)N[C@H](C(=O)N[C@@H](C)C(=O)N[C@@H](CC(N)=O)C(=O)N[C@@H](C)B3OC4C[C@@H]5C[C@@H](C5(C)C)[C@]4(C)O3)C(C)(C)C)cc2)cc1 (stereo partly drawn) [Compound 210] ({Biphenylcarbonyl(4'-Bu)-βAla}-K[Tle]AN-X1) | 0.71 (≈ 0.742 µM) | 4 (≈ 4.18 µM) | 16 | 56
4 | CCCCc1ccc(-c2ccc(C(=O)NCCC(=O)N[C@@H](CCCCN)C(=O)N[C@H](C(=O)N[C@H](C(=O)N[C@@H](CC(N)=O)C(=O)N[C@@H](C)B3OC4C[C@@H]5C[C@@H](C5(C)C)[C@]4(C)O3)C(C)C)[C@@H](C)O)cc2)cc1 (stereo partly drawn) [Compound 212] ({Biphenylcarbonyl(4'-Bu)-βAla}-KTVN-X1) | 0.84 (≈ 0.863 µM) | 5 (≈ 5.14 µM) | 12 | 26
5 | CCCCc1ccc(-c2ccc(C(=O)NCCC(=O)N3C[C@@H](N)C[C@H]3C(=O)N[C@H](C(=O)N[C@@H](C)C(=O)N[C@@H](CC(N)=O)C(=O)N[C@@H](C)B3OC4C[C@@H]5C[C@@H](C5(C)C)[C@]4(C)O3)[C@@H](C)O)cc2)cc1 (stereo partly drawn) [Compound 213] ({Biphenylcarbonyl(4'-Bu)-βAla}-[Pro(4S-NH2)]TAN-X1) | 0.22 (≈ 0.237 µM) | 1.3 (≈ 1.4 µM) | 7.7 | 6.8
6 | CCCCc1ccc(-c2ccc(C(=O)NCCC(=O)N[C@@H](CCCCN)C(=O)N3CCC[C@H]3C(=O)N[C@@H](C)C(=O)N[C@@H](CCCCN)C(=O)N[C@@H](C)B3OC4C[C@@H]5C[C@@H](C5(C)C)[C@]4(C)O3)cc2)cc1 (stereo partly drawn) [Compound 214] ({Biphenylcarbonyl(4'-Bu)-βAla}-KPAK-X1) | 0.35 (≈ 0.366 µM) | 5.7 (≈ 5.97 µM) | 17 | 77
7 | CCCCc1ccc(-c2ccc(C(=O)NCCC(=O)N[C@@H](CCCCN)C(=O)N[C@@H](Cc3ccc(O)cc3)C(=O)N[C@@H](C)C(=O)N[C@@H](CCCCN)C(=O)N[C@@H](C)B(O)O)cc2)cc1 [Compound 215] ({Biphenylcarbonyl(4'-Bu)-βAla}-KYAK-boroAla) | 0.5 (≈ 0.564 µM) | 4 (≈ 4.51 µM) | 17 | 77
8 | CCCCc1ccc(-c2ccc(C(=O)NCCC(=O)N[C@@H](CCCCN)C(=O)N[C@@H](CCC(N)=O)C(=O)N[C@@H](C)C(=O)N[C@@H](CCCCN)C(=O)N[C@@H](C)B3OC4C[C@@H]5C[C@@H](C5(C)C)[C@]4(C)O3)cc2)cc1 (stereo partly drawn) [Compound 216] ({Biphenylcarbonyl(4'-Bu)-βAla}-KQAK-X1) | 0.21 (≈ 0.213 µM) | 4 (≈ 4.06 µM) | 4.1 | 29
9 | CCCCc1ccc(-c2ccc(C(=O)NCCC(=O)N[C@@H](CCCCN)C(=O)NC(CCCN)C(=O)N[C@@H](C)C(=O)N[C@@H](CC(C)C)C(=O)N[C@@H](C)B3OC4C[C@@H]5C[C@@H](C5(C)C)[C@]4(C)O3)cc2)cc1 (stereo partly drawn) [Compound 217] ({Biphenylcarbonyl(4'-Bu)-βAla}-K[ξOrn]AL-X1) | 0.35 (≈ 0.366 µM) | 1.6 (≈ 1.67 µM) | 14 | 15
10 | CCCCc1ccc(-c2ccc(C(=O)NCCC(=O)N[C@@H](CCCCN)C(=O)N[C@@H](CCCCN)C(=O)N[C@@H](C)C(=O)N[C@@H](CC(C)C)C(=O)N[C@@H](C)B3OC4C[C@@H]5C[C@@H](C5(C)C)[C@]4(C)O3)cc2)cc1 (stereo partly drawn) [Compound 218] ({Biphenylcarbonyl(4'-Bu)-βAla}-KKAL-X1) | 0.5 (≈ 0.515 µM) | 1.3 (≈ 1.34 µM) | 13 | 6.9
11 | CCCCc1ccc(-c2ccc(C(=O)NCCC(=O)N[C@@H](CCCCN)C(=O)N[C@H](C(=O)N[C@@H](C)C(=O)NC3(C(=O)N[C@@H](C)B4OC5C[C@@H]6C[C@@H](C6(C)C)[C@]5(C)O4)CC3)[C@@H](C)O)cc2)cc1 (stereo partly drawn) [Compound 219] ({Biphenylcarbonyl(4'-Bu)-βAla}-KTA[Ac3c]-X1) | 5 (≈ 5.47 µM) | 64 (≈ 70 µM) | 46 | 560
12 | CCCCc1ccc(-c2ccc(C(=O)NCCC(=O)N[C@@H](CCCCN)C(=O)N3CCC[C@H]3C(=O)N[C@@H](C)C(=O)N[C@@H](CC(N)=O)C(=O)N[C@@H](C)B(O)O)cc2)cc1 [Compound 220] ({Biphenylcarbonyl(4'-Bu)-βAla}-KPAN-boroAla) | 0.5 (≈ 0.62 µM) | 4 (≈ 4.96 µM) | 7 | 36
13 | CCCCc1ccc(-c2ccc(C(=O)NCCC(=O)N[C@@H](CCCCN)C(=O)N3CCC[C@H]3C(=O)N[C@@H](C)C(=O)N[C@@H](CCCCN)C(=O)N[C@@H](C)B(O)O)cc2)cc1 [Compound 221] ({Biphenylcarbonyl(4'-Bu)-βAla}-KPAK-boroAla) | 1 (≈ 1.22 µM) | 8 (≈ 9.75 µM) | 130 | 62
14 | CCCCc1ccc(-c2ccc(C(=O)NCCC(=O)N[C@@H](CCCCN)C(=O)N[C@@H](CCCCN)C(=O)N[C@@H](C)C(=O)N[C@@H](CCCCN)C(=O)N[C@@H](C)B(O)O)cc2)cc1 [Compound 224] ({Biphenylcarbonyl(4'-Bu)-βAla}-KKAK-boroAla) | 0.13 (≈ 0.153 µM) | 2.8 (≈ 3.29 µM) | 12 | 55
15 | CCCCc1ccc(-c2ccc(C(=O)NCCC(=O)N[C@@H](CCCCN)C(=O)N[C@H](C(=O)N[C@@H](C)C(=O)N[C@@H](Cc3ccc(O)cc3)C(=O)N[C@@H](C)B3OC4C[C@@H]5C[C@@H](C5(C)C)[C@]4(C)O3)[C@@H](C)O)cc2)cc1 (stereo partly drawn) [Compound 225] ({Biphenylcarbonyl(4'-Bu)-βAla}-KTAY-X1) | 0.57 (≈ 0.573 µM) | 2 (≈ 2.01 µM) | 4 | 7.1
16 | CCCCc1ccc(-c2ccc(C(=O)N[C@H](CO)C(=O)N[C@H](C)C(=O)NCC(=O)N(C)[C@H](C(=O)N[C@@H](C)C(=O)N[C@@H](CC(N)=O)C(=O)N[C@@H](C)B3OC4C[C@@H]5C[C@@H](C5(C)C)[C@]4(C)O3)[C@@H](C)O)cc2)cc1 (stereo partly drawn) [Compound 226] ({Biphenylcarbonyl(4'-Bu)}-[dS][dA]G[NMeT]AN-X1) | 2.8 (≈ 2.87 µM) | 25 (≈ 25.6 µM) | 140 | 440
17 | CCCCc1ccc(-c2ccc(C(=O)N[C@H](CO)C(=O)N[C@H](C)C(=O)NCC(=O)N(C)[C@@H](Cc3ccc(O)cc3)C(=O)N[C@@H](C)C(=O)N[C@@H](CC(N)=O)C(=O)N[C@@H](C)B3OC4C[C@@H]5C[C@@H](C5(C)C)[C@]4(C)O3)cc2)cc1 (stereo partly drawn) [Compound 227] ({Biphenylcarbonyl(4'-Bu)}-[dS][dA]G[NMeY]AN-X1) | 8 (≈ 7.71 µM) | 13 (≈ 12.5 µM) | 850 | 550
18 | CCCCc1ccc(-c2ccc(C(=O)N[C@H](CO)C(=O)N[C@H](C)C(=O)NCC(=O)N(C)[C@@H](CCCCN)C(=O)N[C@@H](C)C(=O)N[C@@H](CC(N)=O)C(=O)N[C@@H](C)B3OC4C[C@@H]5C[C@@H](C5(C)C)[C@]4(C)O3)cc2)cc1 (stereo partly drawn) [Compound 228] ({Biphenylcarbonyl(4'-Bu)}-[dS][dA]G[NMeK]AN-X1) | 5.7 (≈ 5.69 µM) | 2.8 (≈ 2.79 µM) | 270 | 360
19 | CCCCc1ccc(-c2ccc(C(=O)N[C@H](CO)C(=O)N[C@H](C)C(=O)NCC(=O)N(C)[C@@H](CCC(=O)O)C(=O)N[C@@H](C)C(=O)N[C@@H](CC(N)=O)C(=O)N[C@@H](C)B3OC4C[C@@H]5C[C@@H](C5(C)C)[C@]4(C)O3)cc2)cc1 (stereo partly drawn) [Compound 229] ({Biphenylcarbonyl(4'-Bu)}-[dS][dA]G[NMeE]AN-X1) | 64 (≈ 63.8 µM) | 32 (≈ 31.9 µM) | 220 | 290
20 | CCCCc1ccc(-c2ccc(C(=O)N[C@H](CO)C(=O)N[C@H](C)C(=O)NCC(=O)N(C)[C@H](C(=O)N[C@@H](C)C(=O)N[C@@H](CC(N)=O)C(=O)N[C@@H](C)B3OC4C[C@@H]5C[C@@H](C5(C)C)[C@]4(C)O3)C(C)C)cc2)cc1 (stereo partly drawn) [Compound 230] ({Biphenylcarbonyl(4'-Bu)}-[dS][dA]G[NMeV]AN-X1) | 2 (≈ 2.06 µM) | 20 (≈ 20.6 µM) | 150 | 390
21 | C[C@H](NC(=O)[C@H](CCCCN)NC(=O)[C@H](C)NC(=O)[C@@H](NC(=O)[C@H](CCN)NC(=O)c1ccc(-c2ccc(C(C)(C)C)cc2)cc1)[C@@H](C)O)B1O[C@@H]2C[C@@H]3C[C@@H](C3(C)C)[C@]2(C)O1 [Compound 231] (X16-[Dab]TAK-{boroAla((+)-pinanediol)}) | 0.5 (≈ 0.581 µM) | 0.5 (≈ 0.581 µM) | 95 | 4.5
